Results on 30 molecules are retold here after patent publication US20090082328A1, “Substituted phenylamino-benzene derivatives useful for treating hyper-proliferative disorders and diseases associated with mitogen extracellular kinase activity” (Bayer Schering Pharma Aktiengesellschaft, priority 2007, published 2009).

The target of one assay is T1, MEK1 (Homo sapiens, UniProt Q02750).
T1 construct: purchased Millipore 14-420
In words: MEK1 Activation Kinase Assay (Cot1, HTRF). The class given is biochemical. The following applies: activation of GST-MEK1 by Cot1. How it is done:
The kinase Cot1 activates MEK1 by phosphorylating its activation loop. The inhibitory activity of compounds of the present invention on this activation of MEK1 was quantified employing the HTRF assay described in the following paragraphs.
As substrate for the kinase reaction the unactive C-terminally His6-tagged GST-MEK1 fusion protein (Millipore cat. no 14-420) was used.
630 (Sigma), 5 mM β-phospho-glycerol] were added and the mixture was incubated for 10 min at 22° C. to allow pre-binding of the test compounds to the GST-MEK1 before the start of the kinase reaction. Then the kinase reaction was started by the addition of 2 μl of a solution of Cot1 in assay buffer and the resulting mixture was incubated for a reaction time of 20 min at 22° C. The concentration of Cot1 in the assay was adjusted depending of the activity of the enzyme lot and was chosen appropriate to have the assay in the linear range, typical enzyme concentrations were in the range of about 2 ng/μl (final conc. in the 5 μl assay volume). […] The resulting mixture was incubated 2 h at 22° C. to allow the binding of the phosphorylated GST-MEK1 to the anti-GST-XL665 and the Eu-cryptate labelled anti-phospho-MEK 1/2 antibody. Subsequently the amount of Ser217/Ser221-phosphorylated substrate was evaluated by measurement of the resonance energy transfer from the Eu-Cryptate-labelled anti-phospho-MEK antibody to the anti-GST-XL665.

A further assay relates to colon cancer. The following applies: oral treatment, mouse models, literature [18]; cited from earlier work.
For assay [1] the following is noted: phase I/II clinical trials in humans, literature [19]; cited from earlier work.

T1 sequence (Q02750 whole entry): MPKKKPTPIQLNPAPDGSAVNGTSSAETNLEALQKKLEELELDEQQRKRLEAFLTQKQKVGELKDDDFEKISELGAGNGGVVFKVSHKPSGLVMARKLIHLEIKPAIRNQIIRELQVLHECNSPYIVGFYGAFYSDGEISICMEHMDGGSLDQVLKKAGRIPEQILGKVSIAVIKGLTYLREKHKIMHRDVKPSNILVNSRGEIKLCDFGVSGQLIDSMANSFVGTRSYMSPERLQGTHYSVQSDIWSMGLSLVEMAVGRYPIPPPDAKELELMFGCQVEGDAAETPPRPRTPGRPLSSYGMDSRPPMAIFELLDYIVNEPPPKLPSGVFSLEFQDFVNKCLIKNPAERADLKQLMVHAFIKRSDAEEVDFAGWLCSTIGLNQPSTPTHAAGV

As usually defined, the IC50 is the concentration that gives 50% inhibition. A high value points to lower potency. On MEK1, `CN(C)S(=O)(=O)Nc1cccc(Oc2cc(F)cc(Nc3ccc(I)cc3F)c2C#N)c1` [Example 2.1, N′-[3-[2-cyano-5-fluoro-3-[(2-fluoro-4-iodophenyl)amino]phenoxy]phenyl]-N,N-dimethyl-sulfamide] yielded an IC50 of less than 1 µM.

`CN(C)S(=O)(=O)Nc1cccc(Oc2cc(F)cc(Nc3ccc(I)cc3F)c2C(N)=O)c1` [Example 3.2, 2-[3-[[(dimethylamino)sulfonyl]amino]phenoxy]-4-fluoro-6-[(2-fluoro-4-iodophenyl)amino]-benzamide] came in with an IC50 at MEK1 of less than 0.25 µM.

On to `NC(=O)c1c(Nc2ccc(I)cc2F)cc(F)cc1OCCCN1CCCC1=O` [Example 3.3, 4-Fluoro-2-(2-fluoro-4-iodo-phenylamino)-6-[3-(2-oxo-pyrrolidin-1-yl)-propoxy]-benzamide], for which the 50% inhibitory concentration (IC50) against MEK1 was less than 0.25 µM.

For `NC(=O)c1c(Nc2ccc(I)cc2F)cc(F)cc1OCCc1cccnc1` [Example 3.5, 4-Fluoro-2-(2-fluoro-4-iodo-phenylamino)-6-(2-pyridin-3-yl-ethoxy)-benzamide], the IC50 against MEK1 is less than 0.25 µM.

On MEK1, `NC(=O)c1c(Nc2ccc(I)cc2F)cc(F)cc1OC[C@H](O)[C@@H](O)CO` [Example 3.8, 4-Fluoro-2-(2-fluoro-4-iodo-phenylamino)-6-((2S,3S)-2,3,4-trihydroxy-butoxy)-benzamide] showed a half-inhibitory concentration (IC50) of less than 0.25 µM.

For `NC(=O)c1c(Nc2ccc(I)cc2F)cc(F)cc1Oc1cccc(N)c1` [Example 4.1, 2-(3-Amino-phenoxy)-4-fluoro-6-(2-fluoro-4-iodo-phenylamino)-benz-amide], the IC50 against MEK1 is less than 0.25 µM.

`NC(=O)c1c(Nc2ccc(I)cc2F)cc(F)cc1OCCC1CCCCN1` (stereo not shown) [Example 4.5, 4-Fluoro-2-(2-fluoro-4-iodo-phenylamino)-6-(2-piperidin-2-yl-ethoxy)-benzamide] registered an IC50 against MEK1 of less than 0.25 µM.

Consider `NC(=O)c1c(Nc2ccc(I)cc2F)cc(F)cc1OCC1CNC1` [Example 4.6, 2-(Azeitidn-3-ylmethoxy)-4-fluoro-6-(2-fluoro-4-iodo-phenylamino)-benzamide], for which, at MEK1, the IC50 was less than 0.25 µM.

On MEK1, `NC(=O)c1c(Nc2ccc(I)cc2F)cc(F)cc1Oc1ccc2c(c1)S(=O)(=O)CO2` [Example 5.1, 2-(3,3-Dioxo-2,3-dihydro-3λ^6-benzo[1,3]oxathiol-5-yloxy)-4-fluoro-6-(2-fluoro-4-iodo-phenylamino)-benzamide] gave an IC50 of less than 1 µM.

Regarding `NC(=O)c1c(Nc2ccc(I)cc2F)cc(F)cc1Oc1ccccc1` [Example 5.2, 4-Fluoro-2-(2-fluoro-4-iodo-phenylamino)-6-phenoxy-benzamide], the IC50 on MEK1 is less than 0.25 µM.

Turning to `CS(=O)(=O)Nc1cccc(Oc2cc(F)cc(Nc3ccc(I)cc3F)c2C(N)=O)c1` [Example 6.1a, 4-Fluoro-2-(2-fluoro-4-iodo-phenylamino)-6-(3-methanesulfonylamino-phenoxy)-benzamide], at MEK1, the IC50 was less than 0.25 µM.

The molecule `CCCNS(=O)(=O)Nc1cccc(Oc2cc(F)cc(Nc3ccc(I)cc3F)c2C(N)=O)c1` [Example 6.3, 2-[3-[[(propylamino)sulfonyl]amino]phenoxy]-4-fluoro-6-[(2-fluoro-4-iodophenyl)amino]-benzamide] returned an IC50 on MEK1 of less than 0.25 µM.

Molecule `NC(=O)c1c(Nc2ccc(I)cc2F)cc(F)cc1Oc1cccc(N2CCCS2(=O)=O)c1` [Example 6.6, 2-[3-(1,1-Dioxo-1λ^6-isothiazolidin-2-yl)-phenoxy]-4-fluoro-6-(2-fluoro-4-iodo-phenylamino)-benzamide] yielded an IC50 on MEK1 of less than 0.25 µM.

For `NC(=O)c1c(Nc2ccc(I)cc2F)cc(F)cc1Oc1cccc(NS(N)(=O)=O)c1` [Example 6.7, 2-[3-[[(amino)sulfonyl]amino]phenoxy]-4-fluoro-6-[(2-fluoro-4-iodophenyl)amino]-benzamide], the IC50 at MEK1 was less than 0.25 µM.

The molecule `NC(=O)c1c(Nc2ccc(I)cc2F)cc(F)cc1OCCCNS(=O)(=O)c1ccccc1` [Example 6.11, 2-(3-Benzene-sulfonylamino-propoxy)-4-fluoro-6-(2-fluoro-4-iodo-phenylamino)-benzamide] returned a half-inhibitory concentration (IC50) on MEK1 of less than 0.25 µM.

The molecule `CS(=O)(=O)N1CCCC(COc2cc(F)cc(Nc3ccc(I)cc3F)c2C(N)=O)C1` (stereo not shown) [Example 6.15, 4-Fluoro-2-(2-fluoro-4-iodo-phenylamino)-6-(1-methanesulfonyl-piperidin-3-ylmethoxy)-benzamide] yielded an IC50 against MEK1 of less than 1 µM.

Take `Cn1cnc(S(=O)(=O)NCCCOc2cc(F)cc(Nc3ccc(I)cc3F)c2C(N)=O)c1` [Example 6.17, 4-Fluoro-2-(2-fluoro-4-iodo-phenylamino)-6-[3-(1-methyl-1H-imidazole-4-sulfonylamino)-propoxy]-benzamide]: on MEK1, the IC50 was less than 0.25 µM.

Consider `CS(=O)(=O)N1CCCCC1CCOc1cc(F)cc(Nc2ccc(I)cc2F)c1C(N)=O` (stereo not shown) [Example 6.22, 4-Fluoro-2-(2-fluoro-4-iodo-phenylamino)-6-[2-(1-methanesulfonyl-piperidin-2-yl)-ethoxy]-benzamide], for which the IC50 on MEK1 was less than 1 µM.

`CC(C)(O)C(O)CCOc1cc(F)cc(Nc2ccc(I)cc2F)c1C(N)=O` (stereo not shown) [Example 7.1, 2-(3,4-Dihydroxy-4-methyl-pentyloxy)-4-fluoro-6-(2-fluoro-4-iodo-phe-nylamino)-benzamide] displayed an IC50 against MEK1 of less than 0.25 µM.

`NC(=O)c1c(Nc2ccc(I)cc2F)cc(F)cc1O[C@@H]1C[C@@H](O)[C@@H](O)C1` [Example 7.7] gave an IC50 against MEK1 of less than 0.25 µM.

`NC(=O)c1c(Nc2ccc(Br)cc2F)cc(F)cc1OCC[C@@H](O)CO` [Example 8.4, 2-(4-Bromo-2-fluoro-phenylamino)-6-((R)-3,4-dihydroxy-butoxy)-4-fluoro-benzamide] showed an IC50 against MEK1 of less than 1 µM.

As to `NC(=O)c1c(Nc2ccc(I)cc2)cc(F)cc1OCC[C@@H](O)CO` [Example 8.5, 2-((R)-3,4-Dihydroxy-butoxy)-4-fluoro-6-(4-iodo-phenylamino)-benzamide], at MEK1, the IC50 was less than 1 µM.

As to `C#Cc1ccc(Nc2cc(F)cc(OCC[C@@H](O)CO)c2C(N)=O)c(F)c1` [Example 9.1, 2-((R)-3,4-Dihydroxy-butoxy)-6-(4-ethynyl-2-fluoro-phenylamino)-4-fluoro-benzamide], at MEK1, the IC50 was less than 1 µM.

`C#Cc1ccc(Nc2cc(F)cc(Oc3cccc(NS(=O)(=O)N(C)C)c3)c2C(N)=O)c(F)c1` [Example 9.4, 2-[3-[[(dimethylamino)sulfonyl]amino]phenyoxy]-4-fluoro-6-[(4-ethynyl-2-fluorophenyl)amino]-benzamide] displayed an IC50 on MEK1 of less than 0.25 µM.

As to `C#Cc1ccc(Nc2cc(F)cc(Oc3cccc(NS(=O)(=O)NCCC)c3)c2C(N)=O)c(F)c1` [Example 9.5, 2-[3-[[(propylamino)sulfonyl]amino]phenyoxy]-4-fluoro-6-[(4-ethynyl-2-fluorophenyl)amino]-benzamide], the IC50 on MEK1 is less than 0.25 µM.

For the molecule `NC[C@H](O)CCOc1cc(F)cc(Nc2ccc(I)cc2F)c1C(N)=O` [Example 10.3, 2-((R)-4-Amino-3-hydroxy-butoxy)-4-fluoro-6-(2-fluoro-4-iodo-phenylamino)-benzamide], at MEK1, the IC50 was less than 0.25 µM.

The molecule `NC(=O)c1c(Nc2ccc(I)cc2F)cc(F)cc1OCC[C@@H](O)CN1CCOCC1` [Example 10.6, 4-Fluoro-2-(2-fluoro-4-iodo-phenylamino)-6-((R)-3-hydroxy-4-morpholin-4-yl-butoxy)-benzamide] displayed an IC50 against MEK1 of less than 0.25 µM.

`NC(=O)c1c(Nc2ccc(I)cc2F)cc(Cl)cc1OCC[C@@H](O)CO` [Example 11.3, 4-Chloro-2-((R)-3,4-dihydroxy-butoxy)-6-(2-fluoro-4-iodo-phenylamino)-benzamide] gave an IC50 at MEK1 of less than 1 µM.

`CNC(=O)c1c(Nc2ccc(I)cc2F)cc(F)cc1OCC[C@@H](O)CO` [Example 12.8, 2-((R)-3,4-Dihydroxy-butoxy)-4-fluoro-6-(2-fluoro-4-iodo-phenylamino)-N-methyl-benzamide] gave an IC50 at MEK1 of less than 0.25 µM.

As to `O=C(NOCC1CC1)c1ccc(F)c(F)c1Nc1ccc(I)cc1Cl` [PD184352], the “colon cancer growth in vivo” value in the assay with colon cancer is given as “inhibit colon cancer growth”. The clinical efficacy entry in assay [1] is recorded as “insufficient efficacy”.
